Measured values: US20070232615A1, “Chemical Compounds” (priority 2004, published 2007)

How the values were obtained:
T-tropic HIV = conditions: patients dual tropic or with only the T-tropic form of the virus; cited from earlier work
[1] = Compound cytotoxicity in the absence of virus (CellTiter-Glo); type: cell-based; conditions: human; HOS cells, no virus; read-out: Cytotox (pIC50) (converted)
Method: (§1) Compounds were profiled against two HIV-1 viruses, the M-tropic (CCR5 utilizing) Ba-L strain and the T-tropic (CXCR4 utilizing) IIIB strain. Both viruses were propagated in human peripheral blood lymphocytes. Compounds were tested for there ability to block infection of the HOS cell line (expressing hCXCR4/hCCR5/hCD4/pHIV-LTR-luciferase) by either HIV-1 Ba-L or HIV-1 IIIB. Compound cytotoxicity was also examined in the absence of virus addition.
(§2) HOS cells (expressing hCXCR4/hCCR5/hCD4/pHIV-LTR-luciferase) were harvested and diluted in Dulbeccos modified Eagles media supplemented with 2% FCS and non-essential amino acid to a concentration of 60,000 cells/ml. The cells were plated into 96-well plates (100 ul per well) and the plates were placed in a tissue culture incubator (37° C.; 5% CO2/95% air) for a period of 24 h.
(§3) Subsequently, 50 ul of the desired drug solution (4 times the final concentration) was added to each well and the plates were returned to the tissue culture incubator (37° C.; 5% CO2/95% air) for 1 h. Following this incubation 50 ul of diluted virus was added to each well (approximately 2 million RLU per well of virus). The plates were returned to the tissue culture incubator (37° C.; 5% CO2/95% air) and were incubated for a further 96 h.
(§4) Following this incubation the endpoint for the virally infected cultures was quantified following addition of Steady-Glo Luciferase assay system reagent (Promega, Madison, Wis.). Cell viability or non-infected cultures was measured using a CellTiter-Glo luminescent cell viability assay system (Promega, Madison, Wis.). All luminescent readouts are performed on a Topcount luminescence detector (Packard, Meridien, Conn.).

human CXCR4 = target: T1, human CXCR4 (Homo sapiens, UniProt P61073); assay: Functional FLIPR assay (block of SDF-1 alpha induced [Ca2+]i change); type: cell-based; conditions: HEK-293 cells with human CXCR4 and Gqi5 BacMam; antagonism of SDF-1 alpha; read-out: Functional assay (pIC50) (converted)
T1 construct: expressed in transfected cells; host or cells: HEK-293 cells (stably expressing human macrophage scavenger receptor class A type 1), transduced with human CXCR4 BacMam and Gqi5 BacMam baculoviruses
Method: Human embryonic kidney (HEK-293) cells were maintained and harvested as described above. Cells were plated in 96-well, black clear bottom, poly-lysine coated plates at a concentration of 40,000 cells per well in a final volume of 100 ul containing human CXCR4 BacMam (MOI=25) and Gqi5 BacMam (MOI=12.5). The cells were incubated at 37° C., 5% CO2, 95% humidity for 24 h to allow for protein expression.
After the required incubation time the cells were washed once with 50 ul of fresh serum-free DMEM/F12 media containing probenicid. 50 ul of dye solution was then added to the cells (Calcium Plus Assay Kit Dye; Molecular Devices) was dissolved in 200 ml of the above probenicid/BSA containing media and incubated for 1 h. Cell plates were transferred to a Fluorometric Imaging Plate Reader (FLIPR). Upon addition the effect of the compounds on the change in [Ca^2+]i was examined to determine if the compounds were agonists or antagonists (ability to block SDF-1 alpha activity) at the CXCR4 receptor. IC50 values are determined and pKb values are calculated using the Leff and Dougall equation: KB=IC50/((2+([agonist]/EC50ˆb)ˆ1/b−1) Where IC50 is that defined by the antagonist concentration-response curve [agonist] is the EC80 concentration of agonist used EC50 is that defined by the agonist concentration-response curve b is the slope of the agonist concentration-response curve.

[2] = test system: HOS (hCXCR4/hCCR5/hCD4/pHIV-LTR-luciferase) cells and HEK-293 cells expressing HIV-1 gp160 (HXB2 strain); assay: Cell/cell fusion assay (luciferase); type: cell-based; conditions: Homo sapiens, HEK293; 24 h, luciferase readout; read-out: Fusion assay (pIC50) (converted)
From the text: The complete coding sequences of HIV-1 tat (GenBank Accession No. X07861) and rev (GenBank Accession No. M34378) were cloned into pcDNA3.1 expression vectors containing G418 and hygromycin resistance genes, respectively. The complete coding sequence of the HIV-1 (HXB2 strain) gp160 envelope gene (nucleotide bases 6225-8795 of GenBank Accession No. K03455) was cloned into plasmid pCRII-TOPO. The three HIV genes were additionally inserted into the baculovirus shuttle vector, pFastBacMam1, under the transcriptional control of the CMV promoter. A construction of the pHIV-I LTR containing mutated NFkB sequences linked to the luciferase reporter gene was prepared by digesting pcDNA3.1, containing the G418 resistance gene, with Nru I and Bam HI to remove the CMV promoter. LTR-luc was then cloned into the Nru I/Bam HI sites of the plasmid vector. Plasmid preparations were performed after the plasmids were amplified in Escherichia coli strain DH5-alpha. The fidelity of the inserted sequences was confirmed by double-strand nucleotide sequencing using an ABI Prism Model 377 automated sequencer.
BacMam Baculovirus Generation
Recombinant BacMam baculoviruses were constructed from pFastBacMam shuttle plasmids by using the bacterial cell-based Bac-to-Bac system. Viruses were propagated in Sf9 (Spodoptera frugiperda) cells cultured in Hink's TNM-FH Insect media supplemented with 10% (v/v) fetal bovine serum and 0.1% (v/v) pluronic F-68 according to established protocols.
Human osteosarcoma (HOS) cells that naturally express human CXCR4 were transfected with human CCR5, human CD4 and the pHIV-LTR-luciferase plasmid using FuGENE 6 transfection reagent. Single cells were isolated and grown under selection condition in order to generate a stable HOS (hCXCR4/hCCR5/hCD4/pHIV-LTR-luciferase) clonal cell line. The cells were maintained in Dulbeccos modified Eagles media supplemented with 10% fetal calf serum (FCS), G418 (400 ug/ml), puromycin (1 ug/ml), mycophenolic acid (40 ug/ml), xanthine (250 ug/ml) and hypoxanthine (13.5 ug/ml) to maintain a selection pressure for cells expressing the LTR-luciferase, hCCR5 and hCD4, respectively. Human embryonic kidney (HEK-293) cells stably transfected to express the human macrophage scavenging receptor (Class A, type 1; GenBank Accession No. D90187), were maintained in DMEM/F-12 media (1:1) supplemented with 10% FCS and 1.5 ug/ml puromycin. The expression of this receptor by the HEK-293 cells enhances their ability to stick to tissue culture treated plasticware.
Transduction of HEK-293 cells
HEK-293 cells were harvested using enzyme-free cell dissociation buffer. The cells were resuspended in DMEM/F-12 media supplemented with 10% FCS and 1.5 ug/ml and counted. Tranductions were performed by direct addition of BacMam baculovirus containing insect cell media to cells. The cells were simultaneously transduced with BacMam baculovirus expressing HIV-1 tat, HIV-1 rev and HIV-1 gp160 (from the HXB2 HIV strain). Routinely an MOI of 10 of each virus was added to the media containing the cells. 2 mM butyric acid was also added to the cells at this stage to increase protein expression in transduced cells. The cells were subsequently mixed and seeded into a flask at 30 million cells per T225. The cells were incubated at 37° C., 5% CO2, 95% humidity for 24 h to allow for protein expression.
Cell/Cell Fusion Assay Format
HEK and HOS cells were harvested in DMEM/F-12 media containing 2% FCS and DMEM media containing 2% FCS, respectively, with no selection agents added. Compounds were plated as 1 ul spots in 100% DMSO on a 96-well CulturPlate plates. HOS cells (50 ul) were added first to the wells, followed immediately by the HEK cells (50 ul). The final concentration of each cell type was 20,000 cells per well. Following these additions, the cells were returned to a tissue culture incubator (37° C.; 5% CO2/95% air) for an additional 24 h.
Measurement of Luciferase Production […]

HIV = assay: HOS HIV infectivity assay (Table 2, strain not given); type: cell-based; conditions: Human immunodeficiency virus 1, read-out: Activity Level
Summary of the method: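 HOS cells expressing hCXCR4/hCCR5/hCD4 and an HIV-LTR-luciferase reporter were preincubated with compound for 1 h in DMEM/2% FCS. They were then infected with HIV-1 Ba-L or IIIB (about 2 million RLU/well) for 96 h at 37° C. Infection was read by luciferase luminescence, and viability in uninfected cultures by CellTiter-Glo.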

HIV-1 IIIB = assay: HOS HIV-1 infectivity assay, IIIB strain; type: cell-based; conditions: Human immunodeficiency virus 1; HOS cells, HIV-1 IIIB (T-tropic, CXCR4 utilizing), 96 h; read-out: HOS (3B)
Method: HOS HIV-1 Infectivity Assay
as §1
HOS HIV-1 Infectivity Assay Format
as §2, §3, §4

T1 sequence (P61073 whole entry): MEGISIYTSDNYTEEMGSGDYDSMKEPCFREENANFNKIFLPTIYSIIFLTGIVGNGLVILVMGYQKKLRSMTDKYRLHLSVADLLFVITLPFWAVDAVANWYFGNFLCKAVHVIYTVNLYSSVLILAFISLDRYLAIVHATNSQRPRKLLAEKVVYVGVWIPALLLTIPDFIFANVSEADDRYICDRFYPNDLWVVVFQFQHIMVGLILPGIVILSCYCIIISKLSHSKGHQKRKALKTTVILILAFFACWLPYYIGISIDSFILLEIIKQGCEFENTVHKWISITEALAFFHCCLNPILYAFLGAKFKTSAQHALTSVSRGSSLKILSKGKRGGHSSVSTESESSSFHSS

| SMILES | T-tropic HIV viral load (T-tropic HIV) | IC50 at 96 h [1] | IC50 (human CXCR4) | IC50 [2] | IC50 (HIV) | IC50 (HIV-1 IIIB) |
| --- | --- | --- | --- | --- | --- | --- |
| c1cc(CN2CCCNCCNCCCNCC2)ccc1CN1CCCNCCNCCCNCC1 [AMD-3100] | significantly reduce T-tropic HIV viral load |  |  |  |  |  |
| CC1CN(c2cccc3nc(CN(C)C4CCCc5cccnc54)cn23)CC(C)N1 (stereo not shown) [Example 12, N-{[5-(3,5-Dimethyl-1-piperazinyl)imidazo[1,2-a]pyridin-2-yl]methyl}-N-methyl-5,6,7,8-tetrahydro-8-quinolinamine] |  | > 100 µM | 0.0282 µM | 0.166 µM | < 0.1 µM | 0.087 µM |
| CC(C)N1CCN(c2cccc3nc(CN(CC(F)(F)F)C4CCCc5cccnc54)cn23)CC1 (stereo not shown) [Example 17, N-({5-[4-(1-Methylethyl)-1-piperazinyl]imidazo[1,2-a]pyridin-2-yl}methyl)-N-(2,2,2-trifluoroethyl)-5,6,7,8-tetrahydro-8-quinolinamine] |  | > 100 µM | 0.00891 µM | 2.14 µM | 0.1 to 0.5 µM | 0.3 µM |
| CN(C)Cc1ccc(-c2cccc3nc(CN(C)C4CCCc5cccnc54)cn23)cc1 (stereo not shown) [Example 18, N-[(5-{4-[(Dimethylamino)methyl]phenyl}imidazo[1,2-a]pyridin-2-yl)methyl]-N-methyl-5,6,7,8-tetrahydro-8-quinolinamine] |  | > 100 µM | 0.0389 µM | 0.148 µM | < 0.1 µM | 0.065 µM |
